The source of these data is the supplement of paper PMC10307832.

Molecules are shown by their SMILES.

Common to all, as to test: relative viability (nuclei count vs DMSO), 5 days (fraction); higher = more cells survive
Experiment [1] relates to NCI-H1648. An outline of the steps:
(§1)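 After 5 days of treatment, lung cancer cells in 1536-well plates were fixed and stained in a single step (final 0.05% Triton X-100, 1% formaldehyde, 1 ug/ml Hoechst) and their nuclei counted on 4× images. Treatment had been applied by pin tool the day after seeding as one drug alone or as a fixed anchor-drug dose with five library-drug doses (not always all listed) in √10 steps. Relative viability is the nuclei count of treated wells divided by that of vehicle wells, and values are medians of duplicate plates.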

Experiment [2] deals with NCI-H1703. The gist of the method: as §1
Experiment [3] relates to NCI-H460. An outline of the steps:
as §1

The test system of experiment [4] is NCI-H522. An outline of the steps: as §1
For experiment [5], the system named is IA-LM. An outline of the steps: as §1
Experiment [6] concerns NCI-H2009. The gist of the method: as §1
Experiment [7] deals with NCI-H661. The gist of the method: as §1
Experiment [8] has as its system A549. The gist of the method:
as §1

Regarding `CC1(C)CCC(c2ccc(Cl)cc2)=C(CN2CCN(c3ccc(C(=O)NS(=O)(=O)c4ccc(N[C@H](CCN5CCOCC5)CSc5ccccc5)c(S(=O)(=O)C(F)(F)F)c4)cc3)CC2)C1` [Navitoclax] + NC(=O)Nc1cc(-c2cccc(F)c2)sc1C(=O)N[C@H]1CCCNC1 [AZD7762] (partner 0.2 µM), the relative viability is 0.799 in experiment [1] (first compound 0.005 µM); 0.669 in experiment [1] (first compound 0.01581 µM); 0.667 in experiment [1] (first compound 0.1581 µM); 0.604 in experiment [1] (first compound 0.5 µM); 0.128 in experiment [2] (first compound 0.005 µM); 0.161 in experiment [2] (first compound 0.01581 µM). Further, the relative viability in experiment [2] (first compound 0.05 µM) was found to be 0.149; in experiment [2] (first compound 0.5 µM), 0.122; in experiment [3] (first compound 0.005 µM), 0.575; in experiment [3] (first compound 0.01581 µM), 0.622; in experiment [3] (first compound 0.05 µM) it was 0.322; in experiment [3] (first compound 0.1581 µM), 0.573. Besides, the relative viability in experiment [3] (first compound 0.5 µM) amounted to 0.532; in experiment [4] (first compound 0.005 µM), 0.748; in experiment [4] (first compound 0.01581 µM), 0.987; in experiment [4] (first compound 0.05 µM), 1.12; in experiment [4] (first compound 0.1581 µM), 0.832; in experiment [4] (first compound 0.5 µM) it was 0.9.
As for `CC1(C)CCC(c2ccc(Cl)cc2)=C(CN2CCN(c3ccc(C(=O)NS(=O)(=O)c4ccc(N[C@H](CCN5CCOCC5)CSc5ccccc5)c(S(=O)(=O)C(F)(F)F)c4)cc3)CC2)C1` [Navitoclax] + O=C(CCCCCCC(=O)Nc1ccccc1)NO [Vorinostat] (partner 1 µM), the relative viability was found to be 0.884 in experiment [5] (first compound 0.005 µM); 0.937 in experiment [5] (first compound 0.01581 µM); 0.919 in experiment [5] (first compound 0.05 µM); 0.875 in experiment [5] (first compound 0.1581 µM); 0.965 in experiment [5] (first compound 0.5 µM); 0.292 in experiment [1] (first compound 0.005 µM). Further, the relative viability in experiment [1] (first compound 0.01581 µM) turned out to be 0.471; in experiment [1] (first compound 0.1581 µM), 0.412; in experiment [1] (first compound 0.5 µM), 0.431; in experiment [6] (first compound 0.005 µM), 0.719; in experiment [6] (first compound 0.01581 µM), 0.88; in experiment [6] (first compound 0.05 µM), 0.759. Besides, the relative viability stood at 0.728 in experiment [6] (first compound 0.1581 µM); 0.719 in experiment [6] (first compound 0.5 µM); 0.614 in experiment [3] (first compound 0.005 µM); 0.7 in experiment [3] (first compound 0.01581 µM); 0.561 in experiment [3] (first compound 0.05 µM); 0.645 in experiment [3] (first compound 0.1581 µM). In addition, the relative viability in experiment [3] (first compound 0.5 µM) was 0.737; in experiment [4] (first compound 0.005 µM), 0.957; in experiment [4] (first compound 0.01581 µM), 0.934; in experiment [4] (first compound 0.05 µM), 0.841; in experiment [4] (first compound 0.1581 µM) it was 0.878; in experiment [4] (first compound 0.5 µM), 0.91. In addition, the relative viability in experiment [7] (first compound 0.005 µM) is 0.769; in experiment [7] (first compound 0.01581 µM) it was 0.727; in experiment [7] (first compound 0.05 µM), 0.809; in experiment [7] (first compound 0.1581 µM), 0.763; in experiment [7] (first compound 0.5 µM), 0.772.
On to `O=C(O)c1ccc(-c2c[nH]c3ncc(-c4ccccc4)cc23)cc1C1CCCC1` + Nc1ncn([C@H]2C[C@H](O)[C@@H](CO)O2)c(=O)n1 [Decitabine] (partner 2 µM), for which the relative viability in experiment [8] (first compound 0.04 µM) is 0.291; in experiment [8] (first compound 0.1265 µM) it was 0.265; in experiment [8] (first compound 0.4 µM) it was 0.277; in experiment [8] (first compound 1.265 µM) it was 0.251; in experiment [1] (first compound 0.04 µM), 0.587; in experiment [1] (first compound 0.1265 µM) it was 0.599. The relative viability in experiment [1] (first compound 0.4 µM) was determined as 0.569; in experiment [6] (first compound 0.04 µM), 0.411; in experiment [6] (first compound 0.1265 µM), 0.415; in experiment [6] (first compound 0.4 µM), 0.398; in experiment [6] (first compound 1.265 µM) it was 0.347; in experiment [3] (first compound 0.04 µM) it was 0.521. Further, the relative viability in experiment [3] (first compound 0.1265 µM) was found to be 0.531; in experiment [3] (first compound 0.4 µM) it was 0.468; in experiment [3] (first compound 1.265 µM), 0.459; in experiment [4] (first compound 0.04 µM), 0.662; in experiment [4] (first compound 0.1265 µM), 0.593; in experiment [4] (first compound 0.4 µM), 0.591. Moreover, the relative viability in experiment [4] (first compound 1.265 µM) is 0.602; in experiment [7] (first compound 0.04 µM) it was 0.518; in experiment [7] (first compound 0.1265 µM), 0.586; in experiment [7] (first compound 0.4 µM) it was 0.534; in experiment [7] (first compound 1.265 µM), 0.524.
